From patent US12187723B2 (BRISTOL-MYERS SQUIBB COMPANY, priority 2019, dated 2025) come the findings set out here.

pIC50: −log10 of the molar value. Where only a bound is given, the exact number is not on record here.

For one assay, the target named is T1, human TLR8 (Homo sapiens, UniProt Q9NR97).
T1 construct: host or cells: HEK-Blue cells
T1 sequence (Q9NR97 27-1041): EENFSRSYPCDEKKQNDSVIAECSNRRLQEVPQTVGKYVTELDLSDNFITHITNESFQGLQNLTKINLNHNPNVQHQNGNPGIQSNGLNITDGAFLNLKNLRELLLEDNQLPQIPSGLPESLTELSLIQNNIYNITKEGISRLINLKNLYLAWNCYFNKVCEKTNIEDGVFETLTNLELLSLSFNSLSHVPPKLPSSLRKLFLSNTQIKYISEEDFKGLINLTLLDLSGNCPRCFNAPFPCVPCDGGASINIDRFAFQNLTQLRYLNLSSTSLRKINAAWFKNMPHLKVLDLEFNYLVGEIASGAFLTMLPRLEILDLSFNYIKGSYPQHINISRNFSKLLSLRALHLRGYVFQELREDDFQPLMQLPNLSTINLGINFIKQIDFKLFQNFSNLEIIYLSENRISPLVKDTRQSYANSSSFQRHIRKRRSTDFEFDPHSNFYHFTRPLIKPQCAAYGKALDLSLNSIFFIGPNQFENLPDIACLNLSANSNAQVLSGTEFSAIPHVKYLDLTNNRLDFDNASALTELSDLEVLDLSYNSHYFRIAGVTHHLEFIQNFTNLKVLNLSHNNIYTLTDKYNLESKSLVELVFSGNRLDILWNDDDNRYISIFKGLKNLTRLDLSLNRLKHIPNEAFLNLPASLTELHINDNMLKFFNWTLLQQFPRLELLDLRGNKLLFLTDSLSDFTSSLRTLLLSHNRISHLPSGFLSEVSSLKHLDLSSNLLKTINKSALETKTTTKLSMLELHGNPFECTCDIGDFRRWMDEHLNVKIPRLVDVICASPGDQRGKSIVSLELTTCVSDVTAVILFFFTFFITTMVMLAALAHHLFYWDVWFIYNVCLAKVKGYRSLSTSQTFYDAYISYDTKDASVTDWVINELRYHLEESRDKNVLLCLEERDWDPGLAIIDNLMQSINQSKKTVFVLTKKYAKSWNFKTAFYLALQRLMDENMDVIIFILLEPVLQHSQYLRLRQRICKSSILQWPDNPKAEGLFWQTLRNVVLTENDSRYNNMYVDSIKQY
In words: TLR8 inhibition reporter assay (HEK-Blue SEAP). The settings on record: HEK-Blue cells overexpressing human TLR8, R848 15.9 μM, 22 hour incubation. It counts as cell-based. Summed up: (§1)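 HEK-Blue cells overexpressing human TLR7, TLR8 or TLR9 carry a SEAP reporter driven by NF-κB/AP-1 sites. Compounds (0.05 nM–50 μM) were preincubated 30 min at room temperature, then cells were stimulated with gardiquimod 7.5 μM (TLR7), R848 15.9 μM (TLR8) or ODN2006 5 nM (TLR9) for 22 h at 37 °C.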
For orientation: In a reporter assay the amount or activity of a reporter protein is the signal.

Another assay deals with T2, human TLR9 (Homo sapiens, UniProt Q9NR96).
T2 construct: host or cells: HEK-Blue cells
T2 sequence (Q9NR96 26-1032): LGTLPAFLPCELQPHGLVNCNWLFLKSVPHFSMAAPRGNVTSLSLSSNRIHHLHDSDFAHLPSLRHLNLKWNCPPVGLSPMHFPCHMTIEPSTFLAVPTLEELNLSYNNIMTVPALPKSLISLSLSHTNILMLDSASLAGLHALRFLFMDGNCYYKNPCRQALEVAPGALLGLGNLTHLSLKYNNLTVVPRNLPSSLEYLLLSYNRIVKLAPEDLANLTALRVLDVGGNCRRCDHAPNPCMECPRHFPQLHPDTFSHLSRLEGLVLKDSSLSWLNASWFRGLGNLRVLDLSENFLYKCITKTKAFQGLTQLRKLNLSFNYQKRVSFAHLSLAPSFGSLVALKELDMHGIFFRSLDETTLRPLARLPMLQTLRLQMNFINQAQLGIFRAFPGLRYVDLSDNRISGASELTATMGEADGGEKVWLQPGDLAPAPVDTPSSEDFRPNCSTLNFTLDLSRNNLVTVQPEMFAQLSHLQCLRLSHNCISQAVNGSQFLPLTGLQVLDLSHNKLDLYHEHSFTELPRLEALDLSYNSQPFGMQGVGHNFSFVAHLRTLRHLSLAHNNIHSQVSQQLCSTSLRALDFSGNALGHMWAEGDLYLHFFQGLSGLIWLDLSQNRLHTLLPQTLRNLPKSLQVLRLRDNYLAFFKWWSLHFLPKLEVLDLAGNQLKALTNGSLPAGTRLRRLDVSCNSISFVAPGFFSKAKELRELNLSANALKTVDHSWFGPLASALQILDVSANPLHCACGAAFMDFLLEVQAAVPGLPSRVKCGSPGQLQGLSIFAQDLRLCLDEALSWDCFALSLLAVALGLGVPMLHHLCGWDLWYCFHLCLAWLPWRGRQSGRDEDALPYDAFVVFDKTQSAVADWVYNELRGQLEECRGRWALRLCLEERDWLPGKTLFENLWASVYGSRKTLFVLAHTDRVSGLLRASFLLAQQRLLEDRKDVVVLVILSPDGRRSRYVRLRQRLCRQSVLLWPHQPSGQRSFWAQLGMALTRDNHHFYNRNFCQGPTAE
Description: TLR9 inhibition reporter assay (HEK-Blue SEAP). It counts as cell-based. The following applies: HEK-Blue cells overexpressing human TLR9, ODN2006 5 nM, 22 hour incubation. The essentials: as §1

Broadly, the pIC50 is the negative decadic logarithm of the IC50, by convention in mol/L. High values mean a small IC50, low ones a large IC50. For `COc1cc(-c2ccc3c(c2)[nH]c(=O)n3C2CCN(CC3CCOC3)CC2)cn2ncnc12` (stereo not shown) [Example 82, 5-(8-methoxy-[1,2,4]triazolo[1,5-a]pyridin-6-yl)-1-(1-((tetrahydrofuran-3-yl)methyl)piperidin-4-yl)-1,3-dihydro-2H-benzo[d]imidazol-2-one], the values for the negative-log IC50 (pIC50) on human TLR8 and at human TLR9 were 5.59 and 5.32, respectively.
Take `Cc1cc2c(cc1-c1cc(C)c3ncnn3c1)[nH]c(=O)n2[C@@H]1CCCN(CC2CCOCC2)C1` [Example 41, (R)-6-methyl-5-(8-methyl-[1,2,4]triazolo[1,5-a]pyridin-6-yl)-1-(1-((tetrahydro-2H-pyran-4-yl)methyl)piperidin-3-yl)-1,3-dihydro-2H-benzo[d]imidazol-2-one]: the negative logarithm of the IC50 (pIC50) against human TLR8 is 7.57; on human TLR9, 5.09.
The corresponding values for `CCCN1CCC[C@@H](n2c(=O)[nH]c3cc(-c4cc(C)c5ncnn5c4)c(C)cc32)C1` [Example 42, (R)-6-methyl-5-(8-methyl-[1,2,4]triazolo[1,5-a]pyridin-6-yl)-1-(1-propylpiperidin-3-yl)-1,3-dihydro-2H-benzo[d]imidazol-2-one] are 7.53 and 4.98.
Regarding `CCCN1CCC[C@@H](n2c(=O)[nH]c3cc(-c4cc(OC)c5ncnn5c4)c(C)cc32)C1` [Example 54, (R)-5-(8-methoxy-[1,2,4]triazolo[1,5-a]pyridin-6-yl)-6-methyl-1-(1-propylpiperidin-3-yl)-1,3-dihydro-2H-benzo[d]imidazol-2-one], the figures for the pIC50 against human TLR8 and at human TLR9 were 7.62 and 5.37, respectively.
For `COc1cc(-c2ccc3c(c2)[nH]c(=O)n3C2CCN(C3CCOC3)CC2)cn2ncnc12` (stereo not shown) [Example 81, 5-(8-methoxy-[1,2,4]triazolo[1,5-a]pyridin-6-yl)-1-(1-(tetrahydrofuran-3-yl)piperidin-4-yl)-1,3-dihydro-2H-benzo[d]imidazol-2-one], in that order: less than 5.51 and 5.41.
The corresponding values for `Cc1cc2c(cc1-c1cc(C)c3ncnn3c1)[nH]c(=O)n2[C@@H]1CCCN(Cc2cccnc2)C1` [Example 46, (R)-6-methyl-5-(8-methyl-[1,2,4]triazolo[1,5-a]pyridin-6-yl)-1-(1-(pyridin-3-ylmethyl)piperidin-3-yl)-1,3-dihydro-2H-benzo[d]imidazol-2-one] are 7.37 and 5.11.
On to `COc1cc(-c2ccc3c(c2)[nH]c(=O)n3C2CCN(C(C)C)CC2)cn2ncnc12` [Example 77, 1-(1-isopropylpiperidin-4-yl)-5-(8-methoxy-[1,2,4]triazolo[1,5-a]pyridin-6-yl)-1,3-dihydro-2H-benzo[d]imidazol-2-one], for which the negative-log IC50 (pIC50) against human TLR8 was less than 5.51; against human TLR9 it was 6.38.
For `COc1cc(-c2cc3[nH]c(=O)n(C4CCN(CC(=O)N(C)C)CC4)c3cc2C)cn2ncnc12` [Example 86, 2-(4-(5-(8-methoxy-[1,2,4]triazolo[1,5-a]pyridin-6-yl)-6-methyl-2-oxo-2,3-dihydro-1H-benzo[d]imidazol-1-yl)piperidin-1-yl)-N,N-dimethylacetamide], in that order: 6.44 and 5.31.
For `COc1ncc(CN2CCC[C@H](n3c(=O)[nH]c4cc(-c5cc(C)c6ncnn6c5)c(C)cc43)C2)cn1` [Example 36, (S)-1-(1-((2-methoxypyrimidin-5-yl)methyl)piperidin-3-yl)-6-methyl-5-(8-methyl-[1,2,4]triazolo[1,5-a]pyridin-6-yl)-1,3-dihydro-2H-benzo[d]imidazol-2-one], in that order: 7.43 and 4.51.
For `COc1cc(-c2ccc3c(c2)[nH]c(=O)n3C2CCN(CC3CC3)CC2)cn2ncnc12` [Example 79, 1-(1-(cyclopropylmethyl)piperidin-4-yl)-5-(8-methoxy-[1,2,4]triazolo[1,5-a]pyridin-6-yl)-1,3-dihydro-2H-benzo[d]imidazol-2-one], in that order: 5.81 and 5.41.
For the molecule `COc1cc(-c2ccc3c(c2)[nH]c(=O)n3C2CCN(C)CC2)cn2ncnc12` [Example 74, 5-(8-methoxy-[1,2,4]triazolo[1,5-a]pyridin-6-yl)-1-(1-methylpiperidin-4-yl)-1,3-dihydro-2H-benzo[d]imidazol-2-one], the results for the negative-log IC50 (pIC50) on human TLR8 and against human TLR9 were less than 5.51 and 6.44, respectively.
With `COc1cc(-c2cc3[nH]c(=O)n([C@H]4CC[C@@H](NC5CCC5)CC4)c3cc2C)cn2ncnc12` [Example 58, 1-((1s,4s)-4-(cyclobutylamino)cyclohexyl)-5-(8-methoxy-[1,2,4]triazolo[1,5-a]pyridin-6-yl)-6-methyl-1,3-dihydro-2H-benzo[d]imidazol-2-one], the pIC50 at human TLR8 is 8.28; on human TLR9 it was 5.38.
With `Cc1cc2c(cc1-c1cc(C)c3ncnn3c1)[nH]c(=O)n2C1CCN(C(C)C)CC1` [Example 2, 1-(1-isopropylpiperidin-4-yl)-6-methyl-5-(8-methyl-[1,2,4]triazolo[1,5-a]pyridin-6-yl)-1,3-dihydro-2H-benzo[d]imidazol-2-one], the pIC50 at human TLR8 was 6.97; against human TLR9 it was 5.25.
For `COc1cc(-c2cc3[nH]c(=O)n([C@@H]4CCCN(CCC(F)(F)F)C4)c3cc2C)cn2ncnc12` [Example 68, (R)-5-(8-methoxy-[1,2,4]triazolo[1,5-a]pyridin-6-yl)-6-methyl-1-(1-(3,3,3-trifluoropropyl)piperidin-3-yl)-1,3-dihydro-2H-benzo[d]imidazol-2-one], in that order: 6.92 and 4.57.
The corresponding values for `CCN[C@H]1CC[C@@H](n2c(=O)[nH]c3cc(-c4cc(OC)c5ncnn5c4)c(C)cc32)CC1` [Example 63, 1-((1s,4s)-4-(ethylamino)cyclohexyl)-5-(8-methoxy-[1,2,4]triazolo[1,5-a]pyridin-6-yl)-6-methyl-1,3-dihydro-2H-benzo[d]imidazol-2-one] are 7.67 and 5.00.
As to `CCC(C)N[C@H]1CC[C@@H](n2c(=O)[nH]c3cc(-c4cc(C)c5ncnn5c4)c(C)cc32)CC1` (stereo partly shown) [Example 34, 1-((1s,4s)-4-(sec-butylamino)cyclohexyl)-6-methyl-5-(8-methyl-[1,2,4]triazolo[1,5-a]pyridin-6-yl)-1,3-dihydro-2H-benzo[d]imidazol-2-one], the pIC50 against human TLR8 is 8.33; at human TLR9, 5.48.
For `Cc1cc2c(cc1-c1cc(C)c3ncnn3c1)[nH]c(=O)n2[C@H]1CC[C@@H](NCc2ncn(C)n2)CC1` [Example 33, 6-methyl-1-((1s,4s)-4-(((1-methyl-1H-1,2,4-triazol-3-yl)methyl)amino)cyclohexyl)-5-(8-methyl-[1,2,4]triazolo[1,5-a]pyridin-6-yl)-1,3-dihydro-2H-benzo[d]imidazol-2-one], in that order: 7.96 and 4.68.
